Test results from patent publication US8338472B2, “Hexahydrocyclopentyl[F]indazole carboxamides and derivatives thereof as selective glucocorticoid receptor modulators” (Merck Sharp & Dohme Corp., priority 2008, dated 2012).
Where two headings read alike, the source gives them in different places.

How the values were obtained:
Glucocorticoid Receptor = molecular target: T1, Glucocorticoid Receptor (Homo sapiens, UniProt P04150); assay: Trans-Activation Modulation of Glucocorticoid Receptor (GRAMMER), MMTV-LUC reporter gene in A549 cells; type: cell-based; settings: Table 1; for Emax: A549, A549 cells, read-out: Transactivation A549 Cells GRAMMER Emax; for Emax / Transactivation A549 Cells GRAMMER Emax: Emax relative to 300 nM dexamethasone; for EC50: inflection point, read-out: Transactivation A549 Cells GRAMMER IP; for EC50 / Transactivation A549 Cells GRAMMER Emax: A549 cells
T1 construct: These cells express large amount of the GR and are very responsive to GC treatment; endogenous in cells; host or cells: A549 cells transiently transfected with the MMTV-LUC reporter
T1 sequence (P04150 1-777): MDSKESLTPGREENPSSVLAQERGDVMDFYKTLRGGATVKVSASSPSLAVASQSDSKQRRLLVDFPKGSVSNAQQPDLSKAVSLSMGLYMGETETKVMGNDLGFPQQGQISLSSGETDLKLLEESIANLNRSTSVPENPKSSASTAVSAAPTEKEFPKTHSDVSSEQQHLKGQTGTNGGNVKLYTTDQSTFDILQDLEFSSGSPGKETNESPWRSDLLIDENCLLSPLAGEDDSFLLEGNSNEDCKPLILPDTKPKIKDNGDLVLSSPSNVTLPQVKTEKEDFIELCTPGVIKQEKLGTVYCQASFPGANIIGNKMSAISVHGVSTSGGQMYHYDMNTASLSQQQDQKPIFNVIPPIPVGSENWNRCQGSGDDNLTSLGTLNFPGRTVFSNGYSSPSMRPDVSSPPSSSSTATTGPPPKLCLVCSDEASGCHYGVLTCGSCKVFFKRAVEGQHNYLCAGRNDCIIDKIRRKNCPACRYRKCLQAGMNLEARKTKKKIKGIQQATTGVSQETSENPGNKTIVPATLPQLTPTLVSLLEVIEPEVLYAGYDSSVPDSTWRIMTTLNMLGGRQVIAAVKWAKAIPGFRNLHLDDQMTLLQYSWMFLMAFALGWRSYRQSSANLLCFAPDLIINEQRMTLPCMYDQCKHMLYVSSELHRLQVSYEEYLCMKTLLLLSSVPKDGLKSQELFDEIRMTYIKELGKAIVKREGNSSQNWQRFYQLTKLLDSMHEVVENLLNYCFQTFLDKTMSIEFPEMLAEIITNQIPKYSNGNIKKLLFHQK
Source text: Trans-Activation Modulation of Glucocorticoid Receptor (GRAMMER)
This assay assesses the ability of test compounds to control transcription from the MMTV-LUC reporter gene in lung adenocarcinoma A549 cells or MDA-MB-453 cells, a human breast cancer cell line that naturally expresses the human GR. The assay measures induction of a modified MMTV LTR/promoter linked to the LUC reporter gene.
The routine transient assay consists of plating 7,000-25,000 cells/well of a white, clear-bottom 96-well plate. Alternatively, 384-well plates can be used at a cell concentration of 10,000/well. The media that the cells are plated in is “exponential growth medium” which consists of phenol red-free RPMI1640 containing 10% FBS, 4 mM L-glutamine, 20 mM HEPES, 10 ug/mL human insulin, and 20 ug/mL gentamicin. Incubator conditions are 37° C. and 5% CO2. The transfection is done in batch mode. The cells are trypsinized and counted to the right cell number in the proper amount of fresh media. It is then gently mixed with the FuGene6/DNA mix and plated onto the 96 or 384-well plate, all the wells receive 100 uL or 40 uL, respectively, of medium+lipid/DNA complex then incubated 37° C. overnight. The transfection cocktail consists of serum-free OptiMEM, FuGene6 reagent and DNA. The manufacturer's (Roche Biochemical) protocol for cocktail setup is as follows: The lipid to DNA ratio is approximately 2.5:1 and the incubation time is 20 min at room temperature. Sixteen to 24 hours after transfection, the cells are treated with dexamethasone to a final concentration of 10 nM as well as the compound of interest, such that final DMSO (vehicle) concentration is equal to or less than 1%. Each plate also contains samples that are treated with 10 nM dexamethasone alone, which is used as the 100% activity control. The cells are exposed to the compounds for 24 hours. After 24 hours, the cells are lysed by a Promega cell culture lysis buffer for approximately 30 min and then the luciferase activity in the extracts is assayed in the 96-well format luminometer. In 384-well format, Steady-Glo (Promega) or Steady-Lite (PerkinElmer) can be used by adding an equal volume of reagent to the media present in each well. Activity induced by 10 nM dexamethasone alone is set at 100% activity. Antagonist activity is calculated by determining the decrease in dexamethasone-induced activity in response to compound treatment relative to samples that were treated with dexamethasone alone. […] This transactivation assay can be performed in an agonist and antagonist mode to identify these different activities.
Activity of test compounds is calculated as the Emax relative to the activity obtained with 300 nM dexamethasone. Activity of test compounds is calculated as the Emax relative to the activity obtained with 300 nM DEX. […] The action of compounds is also tested in an antagonist mode (Anti-GRAMMER) in which the cells are treated with medium containing an agonist such as 10 nM DEX and the ability to agents to inhibit the activation by an agonist is measured.

human GR = molecular target: T2, human GR (Homo sapiens, UniProt P04150); assay: Transrepression Assay (GITAR), TNFα-β-lactamase reporter gene in U937 cells; type: cell-based; settings: for GITAR Greater than by GRAMMER % SEP: GITAR Emax minus GRAMMER Emax; for EC50: inflection point, read-out: Transrepression U937 Cells GITAR IP; for EC50 / Transrepression U937 Cells GITAR Emax: U937 cells
T2 construct: U937 cells contain an endogenous glucocorticoid receptor (GR); endogenous in cells; host or cells: U937 cells stably transfected with the TNF-alpha promoter/beta-lactamase reporter
T2 sequence (P04150 1-777): T1 sequence (P04150 1-777)
Source text: Transrepression Assay (GITAR)
This assay assesses the ability of test compounds to control transcription from the TNFα-β-lactamase reporter gene in U937 cells, a human myelomonocytic leukemia cell line that naturally expresses the human GR. The assay measures compound dependent-repression of the TNFa promoter linked to a reporter gene.
The human U937 cells that had been stablely transfected with the TNF-α promoter driving β-lactamase are used for this assay. U937 cells contain an endogenous glucocorticoid receptor (GR). Cells are maintained in RPMI 1640 Growth medium (Gibco Cat#11875-093) containing 25 mM HEPES, 10% FBS, 2 mM L-Glutamine, 1 mM Sodium pyruvate, 25 μg/ml Gentamicin (Gibco Cat#15710-064), 1:1000 2-Mercaptoethanol (Gibco Cat#21985-023) and 0.8 mg/ml G418 (Gibco Cat#10131-027). The density of the cells in the flask needs to be about 1×10^6−3×10^6/ml at the time of harvest. Usually, the cells are split to 1.2˜1.4×10^5/ml (1:10) 3 days prior to the assay. 50,000 cells/well are plated in 96 well black-walled plates the day of assay. Test compounds are added 10 pt/well, and cells are incubated at 37° C. for 30-45 min. For assaying compounds, first dilute 1:10 in DMSO to make 1 mM, then further dilute 1:100 in medium to make 10× stock prior to adding to the cells. Add 50 ng/ml PMA (Sigma, cat# P8139) 10 μL/well to a final concentration 5 ng/ml, and 1 μg/ml LPS (Sigma, cat# L4130) 10 μL/well to a final concentration 100 ng/ml. Incubate cells at 37° C. overnight for ˜18 hr. PMA is stored frozen as 100 μg/ml stock in DMSO. Dilute 1:10 in DMSO for a working stock of 10 μg/ml and store at −20C. For assaying, dilute the […] working stock 1:200 in medium to make a 10× solution (50 ng/ml). Store frozen LPS at 1 mg/ml in PBS, dilute 1:1000 in medium to make 10× (1 μg/ml) for the assay. Add 6× loading buffer (CCF2−AM) 20 μL/well, and incubate at room temperature for 70-90 min. […] The activity repressed by 100 nM dexamethasone alone is set as 100% activity.

[1] = molecular target: T3, glucocorticoid receptor (GR) (Homo sapiens, UniProt P04150); assay: Ligand binding assay (GR BIND), 3H-dexamethasone displacement in MDA-MB-453 cell lysate; settings: GR BIND Ki, Table 1
T3 sequence (P04150 1-777): T1 sequence (P04150 1-777)
Experimental: Binding Buffer: TEGM (10 mM Tris-HCl, 1 mM EDTA, 10% glycerol, 1 mM beta-mecaptoethanol, 10 mM Sodium Molybdate, pH 7.2)
50% HAP Slurry: Calbiochem Hydroxylapatite, Fast Flow, in 10 mM Tris, pH 8.0 and 1 mM EDTA.
Wash Buffer: 40 mM Tris, pH7.5, 100 mM KCl, 1 mM EDTA and 1 mM EGTA.
Dexmethasone-methyl-^3H, (DEX*); (Amersham cat# TRK645)
Dexamethasone(DEX) (Sigma, cat# D1756):
The cell pellet is washed twice with TEGM (10 mM Tris-HCl, 1 mM EDTA, 10% glycerol, 1 mM beta-mercaptoethanol, 10 mM Sodium Molybdate, pH 7.2). After the final wash, the cells are resuspended in TEGM at a concentration of 10^7 cells/mL. The cell suspension is snap frozen in liquid nitrogen or ethanol/dry ice bath and transferred to −80° C. freezer on dry ice. Before setting up the binding assay, the frozen samples are left on ice-water to just thaw (˜1 hr). Then the samples are centrifuged at 12,500 g to 20,000 g for 30 min at 4° C. The supernatant is used to set-up assay right away. If using 50 μL of supernatant, the test compound can be prepared in 50 μL of the TEGM buffer.
Procedure for Multiple Compound Screening
1×TEGM buffer is prepared, and the isotope-containing assay mixture is prepared in the following order: EtOH (2% final concentration in reaction), ^3H-DEX (Amersham Biosciences) and 1×TEGM. [e.g. For 100 samples, 200 μL (100×2) of EtOH+4.25 μL of 1:10 ^3H-Dex stock+2300 μL (100×23) 1×TEGM]. The compound is serially diluted, e.g., if starting final conc. is 1 μM, and the compound is in 25 μL of solution, for duplicate samples, 75 μL of 4×1 μM solution is made and 3 μL of 100 μM is added to 72 μL of buffer, and 1:5 serial dilution.
25 μL of ^3H-DEX (6 nM) trace and 25 μL compound solution are first mixed together, followed by addition of 50 μL receptor solution. The reaction is gently mixed, spun briefly at about 200 rpm and incubated at 4° C. overnight. 100 μL of 50% HAP slurry is prepared and added to the incubated reaction which is then vortexed and incubated on ice for 5 to 10 minutes. The reaction mixture is vortexed twice more to resuspend HAP while incubating reaction. The samples in 96-well format are then washed in wash buffer using The FilterMate™ Universal Harvester plate washer (Packard). The washing process transfers HAP pellet containing ligand-bound expressed receptor to Unifilter-96 GF/B filter plate (Packard). The HAP pellet on the filter plate is incubated with 50 μL of MICROSCINT (Packard) scintillint for 30 minutes before being counted on the TopCount microscintillation counter (Packard). IC50s are calculated using DEX as a reference.

[2] = U-937, U937 cells, activity repressed by 100 nM dexamethasone = 100%, Table 1, read-out: Transrepression U937 Cells GITAR Emax
[3] = U-937, text statement, 100 nM dexamethasone = 100%, read-out: maximal activity in the transrepression assay (GITAR)
[4] = activity repressed by 100 nM dexamethasone = 100%, Table 1

With C[C@]12Cc3cnn(-c4ccc(F)cc4)c3C=C1CC[C@@H]2C(=O)N(CCO)c1ccccc1 [Compound 68, (4αR,5S)-1-(4-fluorophenyl)-N-(2-hydroxyethyl)-4α-methyl-N-phenyl-1,4,4α,5,6,7-hexahydrocyclopenta[f]indazole-5-carboxamide] the Emax (Glucocorticoid Receptor) was 3.8%, the EC50 (Glucocorticoid Receptor) was 0.128 µM and the “GITAR Greater than by GRAMMER % SEP” value (human GR; Table 1) was 14.4%. For the same compound, the Emax (human GR; [2]) was 18.2%, the Emax (human GR; [3]) was greater than 5% and the EC50 (human GR; Table 1) was 1.02 µM. For the same compound, the Ki [1] was 0.0038 µM.

CN(CCOc1ccccc1)C(=O)[C@H]1CCC2=Cc3c(cnn3-c3ccc(F)cc3)C[C@@]21C [Compound 48, (4αR,5S)-1-(4-fluorophenyl)-N,4α-dimethyl-N-(2-phenoxyethyl)-1,4,4α,5,6,7-hexahydrocyclopenta[f] indazole-5-carboxamide] was tested, and the Emax (Glucocorticoid Receptor) was 2.7%, the EC50 (Glucocorticoid Receptor) was 1.39 µM and the “GITAR Greater than by GRAMMER % SEP” value (human GR; Table 1) was 20.0%. For the same compound, the Emax (human GR; [2]) was 22.8%, the Emax (human GR; [3]) was greater than 5% and the EC50 (human GR; Table 1) was 0.41 µM. It also gave a Ki [1] of 0.007 µM.

For CCCCN(CC=O)C(=O)[C@H]1CCC2=Cc3c(cnn3-c3ccc(F)cc3)C[C@@]21C [Compound 39, (4αR,5S)-N-butyl-1-(4-fluorophenyl)-4α-methyl-N-(2-oxoethyl)-1,4,4α,5 ,6,7-hexahydrocyclopenta[f]indazole-5-carboxamide], the Emax (Glucocorticoid Receptor) was 27%, the EC50 (Glucocorticoid Receptor) was 0.535 µM and the “GITAR Greater than by GRAMMER % SEP” value (human GR; Table 1) was 67.4%. It also gave an Emax (human GR; [2]) of 94.3%, an Emax (human GR; [3]) greater than 5% and an EC50 (human GR; Table 1) of 0.125 µM. The Ki [1] was 0.0044 µM.

C[C@]12Cc3cnn(-c4ccc(F)cc4)c3C=C1CC[C@@H]2C(=O)N(CCO)Cc1cc(F)cc(F)c1 [Compound 32, (4αR,5S)-N-(3,5-difluorobenzyl)-1-(4-fluorophenyl)-N-(2-hydroxyethyl)-4α-methyl-1,4,4α,5,6,7-hexahydrocyclopenta[f]indazole-5-carboxamide] was tested, and the Emax (Glucocorticoid Receptor) was 17.1%, the EC50 (Glucocorticoid Receptor) was 0.872 µM and the “GITAR Greater than by GRAMMER % SEP” value (human GR; Table 1) was 47.1%. It also gave an Emax (human GR; [2]) of 64.3%, an Emax (human GR; [3]) greater than 5% and an EC50 (human GR; Table 1) of 1.03 µM. It also gave a Ki [1] of 0.0111 µM.

C[C@]12Cc3cnn(-c4ccc(F)cc4)c3C=C1CC[C@@H]2C(=O)N(CCc1ccccc1F)CC(O)CC(F)(F)F (stereo partly drawn) [Compound 87, (4αR,5S)-1-(4-fluorophenyl)-N-[2-(2-fluorophenyl)ethyl]-4α-methyl-N-(4,4,4-trifluoro-2-hydroxybutyl)-1,4,4α,5,6,7-hexahydrocyclopenta[f]indazole-5-carboxamide] was tested, and the “Transactivation A549 Cells GRAMMER Emax” value (Glucocorticoid Receptor) was 38.0%, the EC50 (Glucocorticoid Receptor) was 0.287 µM and the “GITAR Greater than by GRAMMER % SEP” value (human GR; Table 1) was 23.1%. For the same compound, the “Transrepression U937 Cells GITAR Emax” value (human GR; [4]) was 61.1%, the Emax (human GR; [3]) was greater than 5% and the EC50 (human GR; Table 1) was 0.233 µM. The Ki [1] was 0.0008 µM.

C[C@]12Cc3cnn(-c4ccc(F)cc4)c3C=C1CC[C@@H]2C(=O)N(CCc1ccccc1F)CC(O)C(F)(F)F (stereo partly drawn) [Compound 93, (4αR,5S)-1-(4-fluorophenyl)-N-[2-(2-fluorophenyl)ethyl]-4α-methyl-N-(3,3,3-trifluoro-2-hydroxypropyl)-1,4,4α,5,6,7-hexahydrocyclopenta[f]indazole-5-carboxamide] was tested, and the “Transactivation A549 Cells GRAMMER Emax” value (Glucocorticoid Receptor) was 61.7%, the EC50 (Glucocorticoid Receptor) was 0.277 µM and the “GITAR Greater than by GRAMMER % SEP” value (human GR; Table 1) was 5.9%. For the same compound, the “Transrepression U937 Cells GITAR Emax” value (human GR; [4]) was 67.5%, the EC50 (human GR; Table 1) was 0.172 µM and the Ki [1] was 0.0011 µM.

With COc1cc(CN(CCO)C(=O)[C@H]2CCC3=Cc4c(cnn4-c4ccc(F)cc4)C[C@@]32C)cc(OC)c1 [Compound 34, (4αR,5S)-N-(3,5-dimethoxybenzyl)-1-(4-fluorophenyl)-N-(2-hydroxyethyl)-4α-methyl-1,4,4α,5,6,7-hexahydrocyclopenta[f]indazole-5-carboxamide] the Emax (Glucocorticoid Receptor) was 22.2%, the EC50 (Glucocorticoid Receptor) was 1.51 µM and the “GITAR Greater than by GRAMMER % SEP” value (human GR; Table 1) was 44.1%. For the same compound, the Emax (human GR; [2]) was 66.3%, the Emax (human GR; [3]) was greater than 5% and the EC50 (human GR; Table 1) was 0.644 µM. It also gave a Ki [1] of 0.012 µM.

C[C@]12Cc3cnn(-c4ccc(F)cc4)c3C=C1CC[C@@H]2C(=O)N1CCCC(=O)CC1 [Compound 15, 1-{[(4αR,5S)-1-(4-fluorophenyl)-4α-methyl-1,4,4α,5,6,7-hexahydrocyclopenta[f]indazol-5-yl]carbonyl}azepan-4-one] was tested, and the Emax (Glucocorticoid Receptor) was 5.3%, the EC50 (Glucocorticoid Receptor) was 1.54 µM and the “GITAR Greater than by GRAMMER % SEP” value (human GR; Table 1) was 7.2%. The Emax (human GR; [2]) was 12.5%, the Emax (human GR; [3]) was greater than 5% and the EC50 (human GR; Table 1) was 3.41 µM. The Ki [1] was 0.12 µM.
